Source: ChEMBL document CHEMBL1201862, “PubChem BioAssay data set” (2004)
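These data come from cells grown in 96-well plates and exposed to compound for 48 hours at five concentrations. GI50 marks 50% less growth.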 Activity calls are given as the source filed them. Cut-off read from the data, not from the text of the source: active = GI50 up to about 1.1 µM and inactive = higher.

What was measured:
Experiment in all cases: growth of human tumour cells (NCI), 48 h
SNB-19 = test system: SNB-19
EKVX = test system: EKVX
OVCAR-3 = test system: OVCAR-3
TK-10 = test system: TK-10
BT-549 = test system: BT-549
Malme-3M = test system: Malme-3M

Compound: C=C1C(=O)O[C@@H]2C=C(C)C3=CC(=O)[C@](C)(C[C@H](OC(=O)/C(C)=C\C)[C@@H]12)O3
- GI50 (SNB-19): 8.47 µM (inactive)
- GI50 (EKVX): 2.77 µM (inactive)
- GI50 (OVCAR-3): 0.491 µM (active)
- GI50 (TK-10): 0.826 µM (active)
- GI50 (BT-549): 0.493 µM (active)
- GI50 (Malme-3M): 1.34 µM (inactive)
